BindingDB's records for doi:10.1021/jm00046a002 (Upjohn, 1994)

Experiments:
[1] = target: T1, Dimer of Gag-Pol polyprotein [514-612] (Human immunodeficiency virus 2, UniProt P04584); assay: Protease Inhibition Assay
T1 construct: 514-612
T1 sequence (P04584 whole entry): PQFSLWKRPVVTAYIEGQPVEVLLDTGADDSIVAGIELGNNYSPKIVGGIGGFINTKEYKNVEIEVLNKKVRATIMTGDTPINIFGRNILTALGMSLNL
Excerpt: (§1) HIV-1 protease was purified and refolded from E. coli inclusion bodies. The substrate used spans the p17-p24 processing site (R-V-S-Q-N-Y-P-I-V-Q-N-K) and was derivatized with biotin and fluorescein isothiocyanate (FITC) at the amino and carboxy termini. In the presence of HIV-l protease, the substrate is rapidly cleaved into two parts. The biotinylated amino terminal fragment binds to the avidin beads while the FITC-containing carboxy1 terminal fragment is removed through the membrane. […] The bound fluorescence is obtained by processing on an IDEXX Screen Machine. Determination of Ki values with this assay requires analysis under conditions in which substrate concentration resides substantially below Km and the inhibitor concentrations greatly exceeds the Ki value and the enzyme concentration.

[2] = target: T2, Dimer of Gag-Pol polyprotein [489-587] (Human immunodeficiency virus 1, UniProt P12497); assay: Protease Inhibition Assay
T2 construct: 489-587
Excerpt: as §1

SMILES	Ki [1] [nM]	Ki [2] [nM]
CCC(Cc1ccccc1)c1cc(O)c(C(CC)c2ccccc2)c(=O)o1 (configuration not stated) [4-hydroxy-6-(1-phenylbutan-2-yl)-3-(1-phenylpropyl)-2H-pyran-2-one]	32	–
O=c1oc2c(c(O)c1C(c1ccccc1)C1CC1)CCCCCC2 (configuration not stated)	–	15
